Converted amounts (≈) assume the structure as drawn.
Columns and labels:
[1] = test system: Penicillium glaucum; assay: Minimum inhibitory concentration (MIC) in agar, Penicillium glaucum; assay type: cell-based; details: 336 h, 28° C., two weeks
Protocol: (§1) Active compounds according to the invention are added in concentrations of 0.1 mg/l to 5,000 mg/l to an agar prepared from bierwort and peptone. After being kept at 28° C. and 60 to 70% relative atmospheric humidity for two weeks, the MIC is determined. The MIC is the lowest concentration of active compound at which no growth at all by the species of microbe used takes place, and is shown in the following Table I.

[2] = test system: Chaetomium globosum; assay: Minimum inhibitory concentration (MIC) in agar, Chaetomium globosum; assay type: cell-based; details: 336 h, 28° C., two weeks
Protocol: as §1

[3] = test system: Aspergillus niger; assay: Minimum inhibitory concentration (MIC) in agar, Aspergillus niger; assay type: cell-based; details: 336 h, 28° C., two weeks
Protocol: as §1

[4] = test system: Drechslera graminea; assay: Drechslera graminea test (barley)/seed treatment (syn. Helminthosporium gramineum); assay type: in vivo; details: seed treatment, about 3 weeks after sowing, undressed 29.7
[5] = test system: Pyrenophora teres; assay: Pyrenophora teres test (barley)/protective; details: protective, 0.025 % by weight in the spray liquor, 7 days after inoculation
Protocol: Solvent: 100 parts by weight of dimethylformamide
Emulsifier: 0.25 part by weight of alkylaryl polyglycol ether
After the spray coating has dried on, the plants are sprayed with a conidia suspension of Pyrenophora teres. The plants then remain in an incubation cabin at 20° C. and 100% relative atmospheric humidity for 48 hours.
The plants are placed in a greenhouse at a temperature of about 20° C. and a relative atmospheric humidity of about 80%.
(§2) Evaluation is carried out 7 days after the inoculation.

[6] = test system: Plasmopara viticola; assay: Plasmopara test (vines)/protective; details: protective, 7 days after inoculation
Protocol: Solvent: 4.7 parts by weight of acetone
Emulsifier: 0.3 part by weight of alkylaryl polyglycol ether
After the spray coating has dried on, the plants are inoculated with an aqueous spore suspension of Plasmopara viticola and then remain in a humidity chamber at 20° to 22° C. and 100% relative atmospheric humidity for 1 day. The plants are then placed in a greenhouse at 22° C. and about 80% atmospheric humidity for 5 days. The plants are then moistened and placed in a humidity chamber for 1 day.
as §2

[7] = test system: Pyricularia oryzae; assay type: in vivo; details: rice, protective; active compound concentration 0.025 %; 4 days after inoculation
[8] = test system: Lentinus tigrinus; assay: Minimum inhibitory concentration (MIC) in agar, Lentinus tigrinus; assay type: cell-based; details: 336 h, 28° C., two weeks
Protocol: as §1

[9] = test system: Aureobasidium pullulans; assay: Minimum inhibitory concentration (MIC) in agar, Aureobasidium pullulans; assay type: cell-based; details: 336 h, 28° C., two weeks
Protocol: as §1

[10] = test system: Alternaria tenuis; assay: Minimum inhibitory concentration (MIC) in agar, Alternaria tenuis; assay type: cell-based; details: Alternaria alternata, 336 h, 28° C., two weeks
Protocol: as §1

[11] = test system: Polyporus versicolor; assay: Minimum inhibitory concentration (MIC) in agar, Polyporus versicolor; assay type: cell-based; details: Trametes versicolor, 336 h, 28° C., two weeks
Protocol: as §1

[12] = test system: Coniophora puteana; assay: Minimum inhibitory concentration (MIC) in agar, Coniophora puteana; assay type: cell-based; details: 336 h, 28° C., two weeks
Protocol: as §1

[13] = test system: Sclerophoma pityophila; assay: Minimum inhibitory concentration (MIC) in agar, Sclerophoma pityophila; assay type: cell-based; details: Sydowia polyspora, 336 h, 28° C., two weeks
Protocol: as §1

Compound: COC(=O)N(SC(F)(Cl)Cl)c1ccc(Cl)cc1 [Example 1]
- MIC [1]: < 20 µg/mL
- MIC [2]: < 20 µg/mL
- MIC [3]: < 20 µg/mL

Compound: COC(=O)N(SC(F)(Cl)Cl)c1ccc(Cl)cc1C [drawing 29]
- Diseased plants in % of the total plants emerged ([4]; 500 mg/kg of seed): 0.0%

Compound: COC(=O)N(SC(F)(Cl)Cl)c1cc(Cl)c(OC)c(Cl)c1
- Disease infestation in % of the untreated control [5]: 25.0%

Compound: COC(=O)N(SC(F)(Cl)Cl)c1cccc(C(F)(F)F)c1 [drawing 30]
- Diseased plants in % of the total plants emerged ([4]; 500 mg/kg of seed): 0.0%

Compound: CCOc1ccc(N(SC(F)(Cl)Cl)C(=O)OC)cc1
- Disease infestation in % of the untreated control [5]: 29.4%

Compound: COc1ccc(N(SC(F)(Cl)Cl)C(=O)OC(C)C)cc1OC
- Disease infestation in % of the untreated control [5]: 25.0%

Compound: COC(=O)N(SC(F)(Cl)Cl)c1ccc(Cl)c(Cl)c1 [Example 18]
- MIC [1]: < 20 µg/mL
- MIC [2]: < 20 µg/mL
- MIC [3]: 35 µg/mL (≈ 99.1 µM)

Compound: COc1c(Cl)cc(N(SC(F)(Cl)Cl)C(=O)OC(C)C)cc1Cl
- Disease infestation in % of the untreated control [5]: 25.0%

Compound: O=C(OCc1ccccc1)N(SC(F)(Cl)Cl)c1ccccc1 [drawing 39]
- Infestation in % ([6]; active compound concentration 1 ppm): 47%
- Infestation in % ([6]; active compound concentration 2 ppm): 24%

Compound: COC(=O)N(SC(F)(Cl)Cl)c1cccc(Cl)c1Cl [Example 14]
- MIC [1]: < 20 µg/mL
- MIC [2]: < 20 µg/mL
- MIC [3]: < 20 µg/mL

Compound: COC(=O)N(SC(Cl)(Cl)Cl)c1ccccc1 [drawing 18]
- Disease infestation in % of the untreated control [5]: 20.3%

Compound: COC(=O)N(SC(F)(Cl)Cl)c1ccc(OC)c(OC)c1
- Disease infestation in % of the untreated control [5]: 0.0%

Compound: COC(=O)N(SC(F)(Cl)Cl)c1cc(Cl)cc(Cl)c1 [drawing 31]
- Diseased plants in % of the total plants emerged ([4]; 500 mg/kg of seed): 0.0%

Compound: COC(=O)N(SC(F)(Cl)Cl)c1cccc(C(F)(F)F)c1 [drawing 14]
- Disease infestation in % of the untreated control [5]: 30.3%

Compound: COC(=O)N(SC(F)(Cl)Cl)c1ccc(Cl)c(Cl)c1 [drawing 25]
- Disease infestation in % of the untreated control [5]: 14.5%

Compound: COC(=O)N(SC(F)(Cl)Cl)c1ccc(Cl)cc1C [drawing 13]
- Disease infestation in % of the untreated control [5]: 31.3%

Compound: COC(=O)N(SC(F)(Cl)Cl)c1ccc(C(F)(F)F)c(Cl)c1 [drawing 17]
- Disease infestation in % of the untreated control [5]: 20.3%

Compound: COC(=O)N(SC(F)(Cl)Cl)c1ccc(C)c(Cl)c1 [drawing 11]
- Disease infestation in % of the untreated control [5]: 39.4%

Compound: COC(=O)N(SC(F)(Cl)Cl)c1ccc(C(F)(F)F)c(Cl)c1 [drawing 32]
- Diseased plants in % of the total plants emerged ([4]; 500 mg/kg of seed): 1.0%

Compound: O=C(OCc1ccc(Cl)c(Cl)c1)N(SC(F)(Cl)Cl)c1ccccc1
- Disease infestation in % of the untreated control [7]: 10%

Compound: COC(=O)N(SC(F)(Cl)Cl)c1ccc(Cl)cc1 [drawing 26]
- Disease infestation in % of the untreated control [5]: 37.7%

Compound: CN(C)S(=O)(=O)N(SC(F)(Cl)Cl)c1ccccc1 [drawing 10, reference compound]
- Disease infestation in % of the untreated control [5]: 72.5%

Compound: COC(=O)N(SC(F)(Cl)Cl)c1cccc(Cl)c1 [Example 9]
- MIC [1]: < 20 µg/mL
- MIC [2]: < 20 µg/mL
- MIC [3]: < 20 µg/mL

Compound: COC(=O)N(SC(F)(Cl)Cl)c1ccc(Cl)cc1C [Example 29]
- MIC [1]: < 20 µg/mL
- MIC [2]: < 20 µg/mL
- MIC [3]: < 20 µg/mL

Compound: COC(=O)N(SC(F)(Cl)Cl)c1ccc(C)c(Cl)c1 [drawing 28]
- Diseased plants in % of the total plants emerged ([4]; 500 mg/kg of seed): 3.2%

Compound: O=C(OCC(Cl)(Cl)Cl)N(SC(F)(Cl)Cl)c1ccc(Cl)cc1
- Disease infestation in % of the untreated control [5]: 33.7%

Compound: COC(=O)N(SC(F)(Cl)Cl)c1ccc(C)c(Cl)c1 [Example 31]
- MIC [1]: < 20 µg/mL
- MIC [2]: < 20 µg/mL
- MIC [3]: < 20 µg/mL

Compound: COC(=O)N(SC(Cl)(Cl)Cl)c1ccccc1 [Example 41]
- MIC [1]: 20 µg/mL (≈ 66.5 µM)
- MIC [8]: 0.5 µg/mL (≈ 1.66 µM)
- MIC [9]: 1.5 µg/mL (≈ 4.99 µM)
- MIC [2]: 2 µg/mL (≈ 6.65 µM)
- MIC [10]: 0.5 µg/mL (≈ 1.66 µM)
- MIC [3]: 5 µg/mL (≈ 16.6 µM)
- MIC [11]: 1.5 µg/mL (≈ 4.99 µM)
- MIC [12]: 0.1 µg/mL (≈ 0.333 µM)
- MIC [13]: 1 µg/mL (≈ 3.33 µM)

Compound: O=C(OCc1ccccc1)N(SC(F)(Cl)Cl)c1ccccc1 [drawing 36]
- Disease infestation in % of the untreated control [7]: 0%

Compound: CN(C)S(=O)(=O)N(SC(F)(Cl)Cl)c1ccccc1 [drawing 27, reference compound]
- Diseased plants in % of the total plants emerged ([4]; 600 mg/kg of seed): 23.9%

Compound: COC(=O)N(SC(F)(Cl)Cl)c1ccc(Cl)cc1Cl [drawing 12]
- Disease infestation in % of the untreated control [5]: 37.7%

Compound: COC(=O)N(SC(F)(Cl)Cl)c1cc(Cl)cc(Cl)c1 [drawing 15]
- Disease infestation in % of the untreated control [5]: 30.3%

Compound: COC(=O)N(SC(F)(Cl)Cl)c1ccc(Cl)cc1Cl [Example 16]
- MIC [1]: < 20 µg/mL
- MIC [2]: < 20 µg/mL
- MIC [3]: < 20 µg/mL

Compound: COCCOC(=O)N(SC(F)(Cl)Cl)c1ccccc1
- Disease infestation in % of the untreated control [7]: 30%

Compound: COC(=O)N(SC(F)(Cl)Cl)c1ccccc1
- Diseased plants in % of the total plants emerged ([4]; 500 mg/kg of seed): 3.1%

Compound: CCOC(=O)N(SC(F)(Cl)Cl)c1cc(Cl)cc(Cl)c1 [Example 23]
- MIC [1]: 7.5 µg/mL (≈ 20.4 µM)
- MIC [8]: 1 µg/mL (≈ 2.72 µM)
- MIC [9]: 3.5 µg/mL (≈ 9.54 µM)
- MIC [2]: 10 µg/mL (≈ 27.2 µM)
- MIC [10]: 5 µg/mL (≈ 13.6 µM)
- MIC [3]: 35 µg/mL (≈ 95.4 µM)
- MIC [11]: 2 µg/mL (≈ 5.45 µM)
- MIC [12]: 1 µg/mL (≈ 2.72 µM)
- MIC [13]: 1.5 µg/mL (≈ 4.09 µM)

Compound: COC(=O)N(SC(F)(Cl)Cl)c1cccc(Cl)c1 [drawing 16]
- Disease infestation in % of the untreated control [5]: 20.3%

From patent publication US4798905A, “Sulphenylated carbamic acid esters, a process for their preparation and their use” (Bayer Aktiengesellschaft, priority 1984, dated 1989)
